# Values quoted from earlier work as cited in patent publication US20010007868A1, “COMPOSITIONS FOR INHIBITING INTESTINAL IRON ABSORPTION” (priority 1998, published 2001).
# Where two headings read alike, the source gives them in different places.
# Key:
# [1] = test system: intestinal absorption of iron (IAI)
# [2] = fertile women, 50 mg/day over a 10 week period
# [3] = humans
# [4] = rats
structure (smiles),measurement,setting,value
Cc1c(O)c(=O)ccn1C [Deferiprone],"reduction of atherogenesis, in-vivo results",,not statistically significant
O=P([O-])([O-])O[C@H]1[C@H](OP(=O)([O-])O)[C@H](OP(=O)([O-])[O-])[C@H](OP(=O)([O-])O)[C@@H](OP(=O)([O-])[O-])[C@@H]1OP(=O)([O-])O.[Na+].[Na+].[Na+].[Na+].[Na+].[Na+].[Na+].[Na+].[Na+] [sodium phytate],reduction of IAI,[1]; dose between 50-300 mg consumed at the time of a meal,about 85%
[Zn] [zinc],reduction of serum ferritin levels,[2],about 20%
O=C1O[C@H]([C@@H](O)CO)C(O)=C1O [ascorbic acid],effect on IAI,[1]; with phytate-containing meal,enhances IAI and offsets the inhibitory effect of phytate
O=C(O)CCCC[C@@H]1CCSS1 (racemic) [Lipoic acid],effect on insulin resistance,[3],improve insulin resistance
same,effect on insulin resistance,[4],improve insulin resistance
O=C([O-])[O-].[Ca+2] [calcium carbonate],decrease of IAI,"[1]; doses of about 300 mg per meal, both heme and non-heme iron sources",50-60%
